Patent publication US11795460B2, “Compositions and methods for TTR gene editing and treating ATTR amyloidosis” (Intellia Therapeutics, Inc., priority 2017, dated 2023)
Strand notation (5' to 3'): a small letter for the sugar, then the base; units joined by * are phosphorothioate-linked, units joined directly phosphodiester-linked; [ ] holds rarer units or linkages, { } end groups; capitals alone tell only the bases. m = 2'-O-methyl; r = 2'-OH (RNA)

B1: G000572: TTR sgRNA modified sequence, Human, SEQ ID No. 113; guide sequence of CR003385 (nucleic acid)
guide: mC*mC*mC*rCrUrArCrUrCrCrUrArUrUrCrCrArCrCrArGrUrUrUrUrArGrAmGmCmUmAmGmAmAmAmUmAmGmCrArArGrUrUrArArArArUrArArGrGrCrUrArGrUrCrCrGrUrUrArUrCrAmAmCmUmUmGmAmAmAmAmAmGmUmGmGmCmAmCmCmGmAmGmUmCmGmGmUmGmCmU*mU*mU*mU

Experiments:
TTR [1] = experiment: TTR editing in primary human hepatocytes electroporated with Spy Cas9 protein loaded with dgRNAs (Table 7); format: cell-based; settings: dgRNA electroporated with Spy Cas9 protein (RNP)
In short: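 Editing efficiency is the fraction of NGS reads carrying insertions, deletions or substitutions at the TTR target, measured on MiSeq amplicons from DNA harvested 24, 48 or 72 h post-delivery. Cas9–dgRNA ribonucleoprotein was nucleofected (P3 buffer, EX-147) into primary human or cyno hepatocytes.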

off-target genomic sites = experiment: Off-target oligo insertion based assay in HEK293_Cas9 cells, dgRNAs and sgRNAs (Tables 23, 24); format: cell-based, human
In short: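 In HEK293 cells constitutively expressing Spy Cas9, crRNA (15 nM) plus trRNA (15 nM), or modified sgRNAs, were lipofected with donor oligo (10 nM). Genomic DNA was collected at 24 h, and oligo-insertion libraries were sequenced on MiSeq/HiSeq to map potential off-target cleavage sites.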

TTR [2] = experiment: TTR editing in primary human hepatocytes transfected with Spy Cas9 mRNA and dgRNAs (Table 9); format: cell-based; settings: dgRNA co-transfected with Spy Cas9 mRNA (SEQ ID NO:2)
In short: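 PHH sequentially lipofected with Spy Cas9 mRNA (100 ng), then crRNA plus tracrRNA (25 nM each) dual-guide lipoplex. Cells harvested 24, 48 or 72 h post-transfection; TTR target amplicons sequenced on Illumina MiSeq, editing given as percent reads with indels or substitutions over total reads.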

[3] = Table 23, TTR dgRNAs in HekCas9 cells, oligo insertion based assay

Molecule	Avg % Deletion (TTR [1]) [%]	Avg % Edit (TTR [1]) [%]	Avg % Insert (TTR [1]) [%]	# Sites (off-target integration sites detected) (off-target genomic sites; [3])	Avg % Deletion (TTR [2]) [%]	Avg % Edit (TTR [2]) [%]	Avg % Insert (TTR [2]) [%]	# Sites (off-target integration sites detected) (off-target genomic sites; Table 24, TTR sgRNAs in HekCas9 cells, insertion detection method)	# Sites in HekCas9 cells (Example 5) (off-target genomic sites; Table 30, TTR sgRNAs, HekCas9 cells, repeated from Example 5 for comparison)
AAGUGCCUUCCAGUAAGAUU (tested as dual guide RNA, chemistry not given here) [CR003368]	0.80	28.47	27.63	2	0.60	11.10	10.53		
GGCUGUCGUCACCAAUCCCA (tested as dual guide RNA, chemistry not given here) [CR003391]	0.27	29.77	29.57	0	0.30	15.47	15.20		
GCGGCAAUGGUGUAGCGGCG (tested as dual guide RNA, chemistry not given here) [CR003377]	0.10	10.23	10.13	0	0.57	17.53	16.97		
CCCAGAGGCAAAUGGCUCCC (tested as dual guide RNA, chemistry not given here) [CR003355]	1.97	12.53	10.60	1	1.63	12.07	10.47		
ACGUGUCUUCUCUACACCCA (tested as dual guide RNA, chemistry not given here) [CR005302]	1.00	61.10	60.10	1	1.13	34.80	33.67		
AAAUAGACACCAAAUCUUAC (tested as dual guide RNA, chemistry not given here) [CR003366]	3.10	34.70	31.63	1	4.07	24.53	20.47		
AAAGGCUGCUGAUGACACCU (tested as dual guide RNA, chemistry not given here) [CR003353]	2.63	84.83	82.23	2	4.43	53.73	49.50		
CCAGUCCAGCAAGGCAGAGG (tested as dual guide RNA, chemistry not given here) [CR003337]	1.30	54.27	53.23	10	1.23	19.30	18.10		
AUAGGAGUAGGGGCUCAGCA (tested as dual guide RNA, chemistry not given here) [CR003383]	5.27	8.57	3.37	1	13.70	15.70	2.07		
GCAACUUACCCAGAGGCAAA (tested as dual guide RNA, chemistry not given here) [CR003356]	2.23	9.97	7.80	4	2.67	7.27	4.70		
AGUCCCUCAUUCCUUGGGAU (tested as dual guide RNA, chemistry not given here) [CR003392]	0.17	4.13	4.00	0	0.07	2.43	2.37		
AGCCUUUCUGAACACAUGCA (tested as dual guide RNA, chemistry not given here) [CR003351]	20.97	51.77	30.83	1	16.37	26.50	10.20		
AAAGUUCUAGAUGCUGUCCG (tested as dual guide RNA, chemistry not given here) [CR003346]	14.83	35.67	20.83	0	14.33	19.97	5.63		
UCUAGAACUUUGACCAUCAG (tested as dual guide RNA, chemistry not given here) [CR003345]	13.57	48.07	34.53	0	18.45	50.65	32.30		
UGGACUGGUAUUUGUGUCUG (tested as dual guide RNA, chemistry not given here) [CR003340]	6.50	12.03	5.60	0	23.17	24.97	1.83		
CAGAGGACACUUGGAUUCAC (tested as dual guide RNA, chemistry not given here) [CR003343]	1.50	77.10	75.63	2	2.60	55.03	52.40		
UUUGACCAUCAGAGGACACU (tested as dual guide RNA, chemistry not given here) [CR003344]	6.10	39.40	33.30	0	9.20	31.50	22.40		
UGUAGAAGGGAUAUACAAAG (tested as dual guide RNA, chemistry not given here) [CR003365]	6.83	42.37	35.57	3	6.67	26.90	20.23		
B1								15	15
